From ChEMBL document CHEMBL4376815, “The Development Process for Discovery and Clinical Advancement of Modern Antimalarials” (J Med Chem, 2019)

Columns and labels:
Plasmodium vivax [1] = assay: Antimalarial activity against Plasmodium vivax infected in human assessed as median parasite clearance time at 30 mg/kg, po administered daily for 3 consecutive day and measured on day 5; assay type: functional
in vivo = conditions: rat, po, 23.7 mg/kg
Description: Half life in rat at 23.7 mg/kg, po and measured up to 24 hrs by LC/MS analysis

Plasmodium falciparum [2] = assay: Antimalarial activity against Plasmodium falciparum 3D7 infected in human erythrocytes assessed as reduction in [3H]-hypoxanthine incorporation incubated for 48 hrs followed by addition of [3H]-hypoxanthine and measured after 24 hrs by liquid scintillation counting method; assay type: functional, organism-based
[3] = Half life in human; assay type: ADME
Plasmodium berghei [4] = assay: Antimalarial activity against Plasmodium berghei infected in NMRI mouse assessed as reduction in parasite growth at 10 mg/kg, po administered once and measured after 96 hrs by flow cytometric analysis relative to control; assay type: functional; design: scale not given: the % may be the effect or the level left
[5] = Cmax in human at 150 mg, po for 3 days and measured on day 3 by LC-MS/MS analysis; conditions: in vivo
Plasmodium berghei [6] = assay: Antimalarial activity against Plasmodium berghei infected in NMRI mouse assessed as reduction in parasite growth at 50 mg/kg, po administered daily for 3 consecutive days by flow cytometric analysis relative to control; assay type: functional; design: scale not given: the % may be the effect or the level left
[7] = target: T1, Voltage-gated inwardly rectifying potassium channel KCNH2 (Homo sapiens, UniProt Q12809); assay: Inhibition of human ERG by binding assay
Plasmodium falciparum [8] = assay: Antimalarial activity against Plasmodium falciparum infected in human assessed as median parasite clearance time at 30 mg/kg, po administered daily for 3 consecutive day and measured on day 5; assay type: functional
[9] = Cmax in human at […], po and measured up to 96 to 144 hrs by LC-MS/MS analysis; assay type: ADME, organism-based; design: route oral; conditions: in vivo
Plasmodium berghei [10] = assay: Antimalarial activity against Plasmodium berghei infected in NMRI mouse assessed as mean survival days at 100 mg/kg, po administered once and measured up to 30 days; assay type: functional
Plasmodium falciparum [11] = assay: Antimalarial activity against Plasmodium falciparum infected in human assessed as reduction in parasite growth at 30 mg/kg, po administered daily for 3 consecutive day and measured on day 5 relative to control; assay type: functional; design: scale not given: the % may be the effect or the level left
Plasmodium falciparum [12] = assay: Antimalarial activity against Plasmodium falciparum V1/S infected in human erythrocytes assessed as reduction in [3H]-hypoxanthine incorporation incubated for 48 hrs followed by addition of [3H]-hypoxanthine and measured after 24 hrs by liquid scintillation counting method; assay type: functional, organism-based
[13] = Clearance in Wistar Hannover rat at 5 mg/kg, iv by LC-MS/MS analysis; assay type: ADME, organism-based; conditions: in vivo
[14] = AUC (0 to 24 hrs) in human at 150 mg, po for 3 days and measured on day 3 by LC-MS/MS analysis; conditions: in vivo
Plasmodium falciparum [15] = assay: Antimalarial activity against Plasmodium falciparum W2 infected in human erythrocytes assessed as reduction in [3H]-hypoxanthine incorporation incubated for 48 hrs followed by addition of [3H]-hypoxanthine and measured after 24 hrs by liquid scintillation counting method; assay type: functional, organism-based
[16] = Drug recovery in feces of po dosed human by LC-MS/MS analysis; assay type: ADME, organism-based; conditions: faeces, read-out: Drug recovery
[17] = Cmax in human at 150 mg, po for 3 days and measured on day 1 by LC-MS/MS analysis; conditions: in vivo
Plasmodium berghei [18] = assay: Antimalarial activity against Plasmodium berghei infected in NMRI mouse assessed as reduction in parasite growth at 10 mg/kg, po administered daily for 3 consecutive days by flow cytometric analysis relative to control; assay type: functional; design: scale not given: the % may be the effect or the level left
[19] = Volume of distribution in Beagle dog at 1 mg/kg, iv by LC-MS/MS analysis; assay type: ADME, organism-based, Canis lupus familiaris; conditions: in vivo
[20] = Tmax in mouse at 24.6 mg/kg, po and measured up to 24 hrs by LC/MS analysis; assay type: ADME, organism-based; conditions: in vivo
[21] = Tmax in human at […], po and measured up to 96 to 144 hrs by LC-MS/MS analysis; assay type: ADME, organism-based; conditions: in vivo
[22] = Metabolic stability in human assessed as paren compound remaining at […], po by LC-MS/MS analysis; assay type: ADME, organism-based; conditions: in vivo
[23] = Oral bioavailability in Wistar Hannover rat at 10 mg/kg by LC-MS/MS analysis; assay type: ADME, organism-based; conditions: in vivo
[24] = Cytotoxicity against human HepG2 cells assessed as reduction in cell viability after 4 days by XTT assay; assay type: cell-based
Plasmodium vivax [25] = assay: Antimalarial activity against Plasmodium vivax infected in human assessed as reduction in parasite growth at 30 mg/kg, po administered daily for 3 consecutive day and measured on day 5 relative to control; assay type: functional; design: scale not given: the % may be the effect or the level left
[26] = Plasma protein binding in human; assay type: ADME, cell-free; conditions: read-out: PPB
[27] = Cytotoxicity against human THP1 cells assessed as reduction in cell viability after 4 days by XTT assay; assay type: cell-based; conditions: THP-1 cells
Plasmodium berghei [28] = assay: Antimalarial activity against Plasmodium berghei infected in po dosed NMRI mouse assessed as reduction in parasite growth administered daily for 3 consecutive days by flow cytometric analysis; assay type: functional
Plasmodium falciparum [29] = assay: Antimalarial activity against Plasmodium falciparum D6 infected in human erythrocytes assessed as reduction in [3H]-hypoxanthine incorporation incubated for 48 hrs followed by addition of [3H]-hypoxanthine and measured after 24 hrs by liquid scintillation counting method; assay type: functional, organism-based
Plasmodium falciparum [30] = assay: Antimalarial activity against Plasmodium falciparum infected in human assessed as parasite clearance time at 30 mg/kg, po; assay type: functional
[31] = target: T1, Voltage-gated inwardly rectifying potassium channel KCNH2; assay: Inhibition of human ERG by patch clamp method
[32] = Half life in human at 30 mg/kg, po; conditions: in vivo
Plasmodium falciparum [33] = assay: Antimalarial activity against Plasmodium falciparum K1 infected in human erythrocytes assessed as reduction in [3H]-hypoxanthine incorporation incubated for 48 hrs followed by addition of [3H]-hypoxanthine and measured after 24 hrs by liquid scintillation counting method; assay type: functional, organism-based
[34] = Cmax in Wistar Hannover rat at 10 mg/kg, po by LC-MS/MS analysis; assay type: ADME, organism-based; design: dose 10 mg/kg, route oral; conditions: in vivo
[35] = Apparent clearance in human at 300 mg, po and measured up to 96 to 144 hrs by LC-MS/MS analysis; conditions: in vivo, read-out: CL(app) (converted)
[36] = Tmax in Wistar Hannover rat at 10 mg/kg, po by LC-MS/MS analysis; assay type: ADME, organism-based; conditions: in vivo
Plasmodium falciparum [37] = assay: Antimalarial activity against Plasmodium falciparum TM91C235 infected in human erythrocytes assessed as reduction in [3H]-hypoxanthine incorporation incubated for 48 hrs followed by addition of [3H]-hypoxanthine and measured after 24 hrs by liquid scintillation counting method; assay type: functional, organism-based
Plasmodium falciparum [38] = assay: Antimalarial activity against Plasmodium falciparum TM90C2A infected in human erythrocytes assessed as reduction in [3H]-hypoxanthine incorporation incubated for 48 hrs followed by addition of [3H]-hypoxanthine and measured after 24 hrs by liquid scintillation counting method; assay type: functional, organism-based
Plasmodium berghei [39] = assay: Antimalarial activity against Plasmodium berghei infected in NMRI mouse assessed as mean survival days at 10 mg/kg, po administered once and measured up to 30 days; assay type: functional
[40] = Oral bioavailability in rat at 23.7 mg/kg and measured up to 24 hrs by LC/MS analysis; assay type: ADME, organism-based; conditions: in vivo

T1 sequence (Q12809 whole entry): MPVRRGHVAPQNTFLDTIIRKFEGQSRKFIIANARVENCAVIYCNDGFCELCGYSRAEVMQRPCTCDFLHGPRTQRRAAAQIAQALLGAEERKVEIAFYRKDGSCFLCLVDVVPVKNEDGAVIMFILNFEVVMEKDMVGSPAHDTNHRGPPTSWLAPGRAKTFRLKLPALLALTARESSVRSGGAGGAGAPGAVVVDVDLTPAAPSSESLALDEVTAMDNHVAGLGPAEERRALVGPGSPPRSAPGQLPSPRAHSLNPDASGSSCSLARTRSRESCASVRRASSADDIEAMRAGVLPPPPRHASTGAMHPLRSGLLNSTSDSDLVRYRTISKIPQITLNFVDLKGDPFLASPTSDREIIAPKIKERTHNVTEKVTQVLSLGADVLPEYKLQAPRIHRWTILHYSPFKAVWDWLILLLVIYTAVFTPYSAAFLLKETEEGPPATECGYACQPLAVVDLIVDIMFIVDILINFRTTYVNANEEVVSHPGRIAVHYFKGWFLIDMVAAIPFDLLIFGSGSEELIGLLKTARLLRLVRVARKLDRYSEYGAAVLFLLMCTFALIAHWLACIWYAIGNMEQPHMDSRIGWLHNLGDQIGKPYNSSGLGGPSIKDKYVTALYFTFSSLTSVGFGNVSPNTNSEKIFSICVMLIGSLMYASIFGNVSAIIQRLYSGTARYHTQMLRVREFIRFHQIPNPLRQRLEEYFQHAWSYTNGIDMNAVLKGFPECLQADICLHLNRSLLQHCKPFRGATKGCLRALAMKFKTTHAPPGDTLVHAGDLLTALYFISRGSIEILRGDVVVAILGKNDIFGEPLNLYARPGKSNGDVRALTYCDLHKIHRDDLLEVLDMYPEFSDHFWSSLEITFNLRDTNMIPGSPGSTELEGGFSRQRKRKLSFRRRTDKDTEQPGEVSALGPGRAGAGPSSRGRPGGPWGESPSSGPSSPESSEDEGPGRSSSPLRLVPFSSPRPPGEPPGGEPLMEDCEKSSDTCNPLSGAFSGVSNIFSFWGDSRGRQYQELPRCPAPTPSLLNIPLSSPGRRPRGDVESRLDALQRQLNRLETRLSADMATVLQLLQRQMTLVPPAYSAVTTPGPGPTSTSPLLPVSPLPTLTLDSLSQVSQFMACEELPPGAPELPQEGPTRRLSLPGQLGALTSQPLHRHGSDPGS

SMILES: C[C@H]1Cc2c([nH]c3cc(Cl)c(F)cc23)[C@@]2(N1)C(=O)Nc1ccc(Cl)cc12 [CIPARGAMIN]
- Time (Plasmodium vivax [1]): 12 h
- half-life at 24 h (in vivo): 27.7 h
- EC50 (Plasmodium falciparum [2]): 0.5 to 1.4 nM
- half-life [3]: 33 h
- Activity (Plasmodium berghei [4]): 9.96%
- Cmax [5]: 1770 ng/mL
- Activity (Plasmodium berghei [6]): 100%
- IC50 [7]: ≥ 30000 nM
- Time (Plasmodium falciparum [8]): 12 h
- Cmax [9]: 2000 ng/mL
- MSD (Plasmodium berghei [10]): >30 days
- Activity (Plasmodium falciparum [11]): 100%
- EC50 (Plasmodium falciparum [12]): 0.5 to 1.4 nM
- clearance [13]: 4.2 mL/min/kg
- AUC at 24 h [14]: 29400 ng·h/mL
- EC50 (Plasmodium falciparum [15]): 0.5 to 1.4 nM
- dose excreted [16]: 32%
- Cmax [17]: 1170 ng/mL
- Activity (Plasmodium berghei [18]): 50%
- Vd [19]: 2.17 L/kg
- Tmax [20]: 1 h
- Tmax [21]: 8 h
- Stability [22]: 75%
- bioavailability [23]: 85%
- CC50 at 96 h [24]: > 10000 nM
- Activity (Plasmodium vivax [25]): 100%
- fraction unbound [26]: < 0.003
- CC50 at 96 h [27]: > 10000 nM
- ED50 (Plasmodium berghei [28]): 1.2 mg/kg
- ED90 (Plasmodium berghei [28]): 2.7 mg/kg
- ED99 (Plasmodium berghei [28]): 5.3 mg/kg
- EC50 (Plasmodium falciparum [29]): 0.5 to 1.4 nM
- Time (Plasmodium falciparum [30]): 10 h
- IC50 [31]: ≥ 30000 nM
- half-life [32]: 20.8 h
- EC50 (Plasmodium falciparum [33]): 0.5 to 1.4 nM
- Cmax [34]: 1210 ng/mL
- CL/F [35]: 91.7 mL/min
- Tmax [36]: 5.3 h
- EC50 (Plasmodium falciparum [37]): 0.5 to 1.4 nM
- EC50 (Plasmodium falciparum [38]): 0.5 to 1.4 nM
- MSD (Plasmodium berghei [39]): 13.3 days
- bioavailability [40]: 100%
